Test results reported in patent publication US10519152B2, “Compounds and their use in treating cancer” (AstraZeneca AB, priority 2017, dated 2019).

Molecular target: T1, Estrogen Receptor (ERα) in MCF-7 human ductal carcinoma breast cell line (Homo sapiens, UniProt P03372)
T1 construct: endogenous in cells; host or cells: MCF-7
T1 sequence (P03372 1-595): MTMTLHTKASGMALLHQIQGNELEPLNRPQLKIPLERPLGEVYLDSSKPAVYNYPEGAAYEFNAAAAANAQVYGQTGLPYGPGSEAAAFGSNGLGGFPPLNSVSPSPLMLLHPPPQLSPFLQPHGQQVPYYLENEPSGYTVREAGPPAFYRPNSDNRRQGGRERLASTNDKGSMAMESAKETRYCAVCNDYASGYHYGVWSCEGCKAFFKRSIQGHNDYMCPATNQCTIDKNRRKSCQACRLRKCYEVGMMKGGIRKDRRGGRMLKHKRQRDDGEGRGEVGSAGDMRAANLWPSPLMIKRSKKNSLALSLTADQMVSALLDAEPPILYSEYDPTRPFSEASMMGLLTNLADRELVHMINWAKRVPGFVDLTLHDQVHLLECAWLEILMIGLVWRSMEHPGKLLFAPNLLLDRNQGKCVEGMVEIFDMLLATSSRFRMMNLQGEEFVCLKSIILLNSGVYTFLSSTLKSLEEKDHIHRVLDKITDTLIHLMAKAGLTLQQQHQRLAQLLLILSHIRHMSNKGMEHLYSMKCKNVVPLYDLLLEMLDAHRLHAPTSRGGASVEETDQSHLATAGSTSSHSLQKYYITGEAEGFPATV
Experiment: MCF-7 ER degradation assay (cell based immuno-fluorescence)
Settings: MCF-7 cells; for ER degradation ≥ 90% at 0.3 μM: ER degradation by fulvestrant at 0.3 μM is defined as 100%; for DC50: 18-22 hours incubation, 50% reduction of ERα expression, single experiment or average of two or more, read-out: MCF-7 ER degradation IC50
Method in brief: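 MCF-7 human ductal carcinoma breast cells were seeded at 3.75×10^4 cells per mL (40 μL per well) in 384 well plates with phenol red free DMEM containing 2 mM L-Glutamine and 5% (v/v) Charcoal/Dextran treated foetal calf serum. After overnight culture, compounds were acoustically dispensed, incubated 18-22 hours, then cells were formaldehyde-fixed and immunostained for ERα.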

Row | SMILES | ER degradation ≥ 90% at 0.3 μM | DC50 [nM]
1 | Cc1ncsc1-c1ccc(CNC(=O)[C@@H]2C[C@@H](O)CN2C(=O)[C@@H](NC(=O)COCCCCCOCCCOc2cc(F)c([C@@H]3c4[nH]c5ccccc5c4C[C@@H](C)N3CC(C)(C)F)c(F)c2)C(C)(C)C)cc1 [Example 136, (2S,4R)-1-((S)-2-(2-((5-(3-(3,5-Difluoro-4-((1R,3R)-2-(2-fluoro-2-methylpropyl)-3-methyl-2,3,4,9-tetrahydro-1H-pyrido[3,4-b]indol-1-yl)phenoxy)propoxy)pentyl)oxy)acetamido)-3,3-dimethylbutanoyl)-4-hydroxy-N-(4-(4-methylthiazol-5-yl)benzyl)pyrrolidine-2-carboxamide] | •• | 1.1
2 | Cc1ncsc1-c1ccc(CNC(=O)[C@@H]2C[C@@H](O)CN2C(=O)[C@@H](NC(=O)COCCCCCCCCOc2cc(F)c([C@@H]3c4[nH]c5ccccc5c4C[C@@H](C)N3CC(C)(C)F)c(F)c2)C(C)(C)C)cc1 [Example 12, (2S,4R)-1-((S)-2-(2-((8-(3,5-Difluoro-4-((1R,3R)-2-(2-fluoro-2-methylpropyl)-3-methyl-2,3,4,9-tetrahydro-1H-pyrido[3,4-b]indol-1-yl)phenoxy)octyl)oxy)acetamido)-3,3-dimethylbutanoyl)-4-hydroxy-N-(4-(4-methylthiazol-5-yl)benzyl)pyrrolidine-2-carboxamide] | •• | 6.6
3 | Cc1ncsc1-c1ccc(CNC(=O)[C@@H]2C[C@@H](O)CN2C(=O)[C@@H](NC(=O)COCCCC2CN(CCOc3cc(F)c([C@@H]4c5[nH]c6ccccc6c5C[C@@H](C)N4CC(C)(C)F)c(F)c3)C2)C(C)(C)C)cc1 [Example 47, (2S,4R)-1-((S)-2-(2-(3-(1-(2-(3,5-difluoro-4-((1R,3R)-2-(2-fluoro-2-methylpropyl)-3-methyl-2,3,4,9-tetrahydro-1H-pyrido[3,4-b]indol-1-yl)phenoxy)ethyl)azetidin-3-yl)propoxy)acetamido)-3,3-dimethylbutanoyl)-4-hydroxy-N-(4-(4-methylthiazol-5-yl)benzyl)pyrrolidine-2-carboxamide] | • | 0.6
4 | Cc1ncsc1-c1ccc([C@H](C)NC(=O)[C@@H]2C[C@@H](O)CN2C(=O)[C@@H](NC(=O)CCOCCCCCCCOc2cc(F)c([C@@H]3c4[nH]c5ccccc5c4C[C@@H](C)N3CC(C)(C)F)c(F)c2)C(C)(C)C)cc1 [Example 114, (2S,4R)-1-((S)-2-(3-((7-(3,5-difluoro-4-((1R,3R)-2-(2-fluoro-2-methylpropyl)-3-methyl-2,3,4,9-tetrahydro-1H-pyrido[3,4-b]indol-1-yl)phenoxy)heptyl)oxy)propanamido)-3,3-dimethylbutanoyl)-4-hydroxy-N—((S)-1-(4-(4-methylthiazol-5-yl)phenyl)ethyl)pyrrolidine-2-carboxamide] | •• | 3.6
5 | Cc1ncsc1-c1ccc(CNC(=O)[C@@H]2C[C@@H](O)CN2C(=O)[C@@H](NC(=O)COCCOCCCCCOc2cc(F)c([C@@H]3c4[nH]c5ccccc5c4C[C@@H](C)N3CC(F)(F)F)c(F)c2)C(C)(C)C)cc1 [Example 139, (2S,4R)-1-((S)-2-(2-(2-((5-(3,5-Difluoro-4-((1R,3R)-3-methyl-2-(2,2,2-trifluoroethyl)-2,3,4,9-tetrahydro-1H-pyrido[3,4-b]indol-1-yl)phenoxy)pentyl)oxy)ethoxy)acetamido)-3,3-dimethylbutanoyl)-4-hydroxy-N-(4-(4-methylthiazol-5-yl)benzyl)pyrrolidine-2-carboxamide] | •• | 1.1
6 | Cc1ncsc1-c1ccc(CNC(=O)[C@@H]2C[C@@H](O)CN2C(=O)[C@@H](NC(=O)CCOCCCCCCCOc2cc(F)c([C@@H]3c4[nH]c5ccccc5c4C[C@@H](C)N3CC(C)(C)F)c(F)c2)C(C)(C)C)cc1 [Example 115, (2S,4R)-1-((S)-2-(3-((7-(3,5-difluoro-4-((1R,3R)-2-(2-fluoro-2-methylpropyl)-3-methyl-2,3,4,9-tetrahydro-1H-pyrido[3,4-b]indol-1-yl)phenoxy)heptyl)oxy)propanamido)-3,3-dimethylbutanoyl)-4-hydroxy-N-(4-(4-methylthiazol-5-yl)benzyl)pyrrolidine-2-carboxamide] | •• | 3.4
7 | Cc1ncsc1-c1ccc(CNC(=O)[C@@H]2C[C@@H](O)CN2C(=O)[C@@H](NC(=O)COCCCCCOCCOc2cc(F)c([C@@H]3c4[nH]c5ccccc5c4C[C@@H](C)N3CC(C)(C)F)c(F)c2)C(C)(C)C)cc1 [Example 9, (2S,4R)-1-((S)-2-(2-((5-(2-(3,5-Difluoro-4-((1R,3R)-2-(2-fluoro-2-methylpropyl)-3-methyl-2,3,4,9-tetrahydro-1H-pyrido[3,4-b]indol-1-yl)phenoxy)ethoxy)pentyl)oxy)acetamido)-3,3-dimethylbutanoyl)-4-hydroxy-N-(4-(4-methylthiazol-5-yl)benzyl)pyrrolidine-2-carboxamide] | •• | 0.7
8 | Cc1ncsc1-c1ccc(CNC(=O)[C@@H]2C[C@@H](O)CN2C(=O)[C@@H](NC(=O)COCCc2ccc(COc3cc(F)c([C@@H]4c5[nH]c6ccccc6c5C[C@@H](C)N4CC(C)(C)F)c(F)c3)cc2)C(C)(C)C)cc1 [Example 53, (2S,4R)-1-((S)-2-(2-(4-((3,5-difluoro-4-((1R,3R)-2-(2-fluoro-2-methylpropyl)-3-methyl-2,3,4,9-tetrahydro-1H-pyrido[3,4-b]indol-1-yl)phenoxy)methyl)phenethoxy)acetamido)-3,3-dimethylbutanoyl)-4-hydroxy-N-(4-(4-methylthiazol-5-yl)benzyl)pyrrolidine-2-carboxamide] | • | 3.5
9 | Cc1ncsc1-c1ccc([C@@H](CN)NC(=O)[C@@H]2C[C@@H](O)CN2C(=O)[C@@H](NC(=O)COCCOCCOCCOc2cc(F)c([C@@H]3c4[nH]c5ccccc5c4C[C@@H](C)N3CC(C)(C)F)c(F)c2)C(C)(C)C)cc1 [Example 106, (2S,4R)—N-[(1S)-2-amino-1-[4-(4-methylthiazol-5-yl)phenyl]ethyl]-1-[(2S)-2-[[2-[2-[2-[2-[3,5-difluoro-4-[(1R,3R)-2-(2-fluoro-2-methyl-propyl)-3-methyl-1,3,4,9-tetrahydropyrido[3,4-b]indol-1-yl]phenoxy]ethoxy]ethoxy]ethoxy]acetyl]amino]-3,3-dimethyl-butanoyl]-4-hydroxy-pyrrolidine-2-carboxamide] | • | 0.9
10 | Cc1ncsc1-c1ccc(CNC(=O)[C@@H]2C[C@@H](O)CN2C(=O)[C@@H](NC(=O)COCCOCCCCCOc2cnc([C@@H]3c4[nH]c5ccccc5c4C[C@@H](C)N3CC(F)(F)F)c(F)c2)C(C)(C)C)cc1 [Example 165, (2S,4R)-1-((S)-2-(2-(2-((5-((5-Fluoro-6-((1S,3R)-3-methyl-2-(2,2,2-trifluoroethyl)-2,3,4,9-tetrahydro-1H-pyrido[3,4-b]indol-1-yl)pyridin-3-yl)oxy)pentyl)oxy)ethoxy)acetamido)-3,3-dimethylbutanoyl)-4-hydroxy-N-(4-(4-methylthiazol-5-yl)benzyl)pyrrolidine-2-carboxamide] | •• | 4.4
11 | Cc1ncsc1-c1ccc(CNC(=O)[C@@H]2C[C@@H](O)CN2C(=O)[C@@H](NC(=O)COCCOCCCCCOc2cc(F)c([C@@H]3c4[nH]c5ccccc5c4C[C@@H](C)N3CC(F)F)c(F)c2)C(C)(C)C)cc1 [Example 167, (2S,4R)-1-((S)-2-(2-(2-((5-(4-((1R,3R)-2-(2,2-Difluoroethyl)-3-methyl-2,3,4,9-tetrahydro-1H-pyrido[3,4-b]indol-1-yl)-3,5-difluorophenoxy)pentyl)oxy)ethoxy)acetamido)-3,3-dimethylbutanoyl)-4-hydroxy-N-(4-(4-methylthiazol-5-yl)benzyl)pyrrolidine-2-carboxamide] | •• | 0.6
12 | Cc1ncsc1-c1ccc(CNC(=O)[C@@H]2C[C@@H](O)CN2C(=O)[C@@H](NC(=O)COc2cccc(COc3cc(F)c([C@@H]4c5[nH]c6ccccc6c5C[C@@H](C)N4CC(C)(C)F)c(F)c3)c2)C(C)(C)C)cc1 [Example 20, (2S,4R)-1-((S)-2-(2-(3-((3,5-difluoro-4-((1R,3R)-2-(2-fluoro-2-methylpropyl)-3-methyl-2,3,4,9-tetrahydro-1H-pyrido[3,4-b]indol-1-yl)phenoxy)methyl)phenoxy)acetamido)-3,3-dimethylbutanoyl)-4-hydroxy-N-(4-(4-methylthiazol-5-yl)benzyl)pyrrolidine-2-carboxamide] | • | 1.7
